Values after ≈ are worked out from the molar mass of the structure shown. “Also recorded” adds a separate entry of the source. Read-outs that look alike come from different tables or passages of the source. Marks after values point to notes of the source that are not given here.
Tests used:
[1] = target: T1, BChE (EC 3.1.1.8, from horse serum) (Equus caballus, UniProt P81908); assay: biochemical; details: means ± SD, at least three independents
T1 construct: BChE (EC 3.1.1.8, from horse serum); purchased Sigma-Aldrich; host or cells: horse serum
T1 sequence (P81908 whole entry): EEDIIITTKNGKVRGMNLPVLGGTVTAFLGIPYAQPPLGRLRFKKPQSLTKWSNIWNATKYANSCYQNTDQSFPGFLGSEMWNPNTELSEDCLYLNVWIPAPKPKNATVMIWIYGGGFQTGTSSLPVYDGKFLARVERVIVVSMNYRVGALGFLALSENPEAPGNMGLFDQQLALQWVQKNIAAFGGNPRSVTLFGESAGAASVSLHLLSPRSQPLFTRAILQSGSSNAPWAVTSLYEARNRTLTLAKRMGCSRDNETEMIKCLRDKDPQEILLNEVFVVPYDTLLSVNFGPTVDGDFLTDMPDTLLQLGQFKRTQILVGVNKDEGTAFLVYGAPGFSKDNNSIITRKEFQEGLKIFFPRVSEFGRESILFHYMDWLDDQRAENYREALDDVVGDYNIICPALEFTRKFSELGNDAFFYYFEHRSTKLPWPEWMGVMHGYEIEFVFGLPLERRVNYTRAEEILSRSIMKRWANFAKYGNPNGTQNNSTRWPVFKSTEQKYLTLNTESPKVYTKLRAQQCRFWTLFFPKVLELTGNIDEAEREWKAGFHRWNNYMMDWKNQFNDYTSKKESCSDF
Description: (§1) AChE and BChE inhibitory activities of compounds were determined by using a modified Ellman’s method. AChE (EC 3.1.1.7, from electric eel), BChE (EC 3.1.1.8, from horse serum), 5,5′-dithiobis(2nitrobenzoic acid) (DTNB), acetylthiocholine iodide (ATCI) and butyrylthiocholine iodide (BTCI) were purchased from Sigma-Aldrich. The reaction mixture contained 140 μL of 100 mM sodium phosphate buffer (pH 8.0), the enzyme solution (either 0.05 U/mL of AChE, 20 μL; or 0.05 U/mL of BChE, 20 μL), and test compound (20 μL). Assayed solutions of test compounds were pre-incubated with corresponding ChE at 25 °C for 15 min. The reaction was initiated by the addition of 10 μL of 10 mM DTNB and 10 μL of 7.5 mM substrate (ATCI or BTCI). The activity was determined by measuring the increase in absorbance at 412 nm at 37 °C in 10 min intervals using a microplate reader. The percentage of inhibition was calculated from the measured data as follows: (Ac − Ai)/Ac × 100%, where Ai and Ac represent the change in the absorbance in the presence of inhibitor and without inhibitor, respectively.

[2] = target: T2, AChE (EC 3.1.1.7, from electric eel) (Electrophorus electricus, UniProt O42275); assay: biochemical; details: for IC50: means ± SD, at least three independents
T2 construct: purchased Sigma-Aldrich
T2 sequence (O42275 24-633): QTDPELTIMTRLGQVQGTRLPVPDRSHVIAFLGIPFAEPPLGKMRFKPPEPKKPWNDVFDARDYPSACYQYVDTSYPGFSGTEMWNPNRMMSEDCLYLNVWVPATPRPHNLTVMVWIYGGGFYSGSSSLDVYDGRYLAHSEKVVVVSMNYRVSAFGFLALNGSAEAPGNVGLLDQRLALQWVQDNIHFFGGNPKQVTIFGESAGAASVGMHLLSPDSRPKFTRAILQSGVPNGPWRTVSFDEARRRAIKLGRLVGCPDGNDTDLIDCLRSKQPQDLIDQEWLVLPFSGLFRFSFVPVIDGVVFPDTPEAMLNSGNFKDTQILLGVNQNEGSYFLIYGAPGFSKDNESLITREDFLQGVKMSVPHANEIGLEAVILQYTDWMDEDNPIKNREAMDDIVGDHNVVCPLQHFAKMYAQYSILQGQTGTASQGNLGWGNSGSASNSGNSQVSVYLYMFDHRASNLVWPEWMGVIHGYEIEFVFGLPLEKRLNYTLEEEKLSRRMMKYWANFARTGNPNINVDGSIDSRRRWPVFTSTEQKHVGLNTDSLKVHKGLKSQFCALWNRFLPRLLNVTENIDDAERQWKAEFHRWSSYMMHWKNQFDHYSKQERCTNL
Description: as §1

[3] = Lipophilicity (LogP) determination, shake-flask octanol/water; type: physicochemical; details: HPLC, read-out: LogP (experimental)
Text: For anti-Alzheimer drug candidates, the ability to cross the blood–brain barrier (BBB) and to enter the central nervous system (CNS) is crucial to achieve their pharmacological target binding and activity, and CNS drugs require more strict rules for a successful penetration. […] Besides, for molecules to penetrate the BBB, a topological polar surface area (TPSA) value less than 90 Å ^2 is usually needed and molecules with a TPSA of greater than 120 Å ^2 tend to be poor in permeating cell membranes. Therefore, the molar mass (MW), LogP, and TPSA of all target compounds were simulated by ChemDraw 19.0 (Table 1). […] Because LogP was thought as an important physicochemical parameter to evaluate the ability to cross BBB, the LogP of some compounds was further assessed in experiments.
The lipophilicities of test compounds were determined using the traditional shake-flask method. A solid test compound (2 mg) was placed into a 10 mL pear-shaped flask, and measured volumes of octanol and water were added for logP determination. The resulting biphasic mixture was stirred for 24 h and then left without stirring for 12 h to allow phase separation. The test compound in each phase was sampled and quantitated using HPLC. The areas under the peaks were divided and the log taken.

[4] = Water solubility, shake-flask method; type: physicochemical; details: thermodynamic from solid, double distilled water, 37 °C
Description: Water solubility is regarded as another vital descriptor for BBB penetration, where high solubility is considered as a prerequisite for a rapid absorption and higher bioavailability of a drug candidate. […] With this experiment, we have obtained their data as 0.62, 3.03, 12.9, and […] for the selected compounds 11a, 11g, 12a, and 12c, respectively.
Solubility was determined by using the shake-flask method.The desired amount of the compound was placed in a test tube, to which an appropriate amount of double distilled water was introduced. The suspension was agitated on a plate shaker at 37 °C for 24 h. After centrifuging, HPLC analyses of supernatant was performed. The solubility of the compound was obtained from its HPLC result.

AChE = target: T3, AChE (Electrophorus electricus, UniProt O42275); assay: Enzyme kinetic analysis against AChE (reversibility, Lineweaver-Burk, Ki); type: biochemical; details: for type of AChE inhibition: Lineweaver-Burk plots; for Ki: Lineweaver-Burk secondary plots, substrate ATCI, read-out: Ki (inhibition constant) against AChE; for reversibility of AChE inhibition: plots of initial velocity versus enzyme concentration
T3 construct: purchased Sigma-Aldrich
T3 sequence (O42275 24-633): as above
Description: The kinetic characteristics of two active compounds, 11a and 11g, against AChE was also studied to elucidate the type of inhibition and the inhibition constant. The analysis was carried out by measuring the enzyme’s activity at different concentrations of substrate (0 μM–10.0 μM). The acquired inhibition data were further depicted with the Lineweaver–Burk method followed by inhibition constant (Ki) calculation using Lineweaver–Burk secondary plots. […] This pattern of inhibition is usually the result of a combination of partially competitive and non-competitive inhibitors.
In order to investigate the reversibility of compounds 11a and 11g to AChE, different concentrations of compounds (0−10 μM) and five different concentrations of AChE (0.025−0.10 U/mL) were measured at 412 nm after a 2 min incubation at 37 °C. Values were measured in triplicate for the velocity and enzyme concentration profiles. Velocity (V) was calculated from the measured data as follows: V = (Ac−Ai)/2, where Ai and Ac represent the change in absorbance in the presence and absence of […], respectively. All data were analyzed by OriginPro 2021.
For each experiment, the reaction was started by adding substrate and the progression curve was recorded at 412 nm after two minutes of incubation at 37°C. […] The slopes of these inverse plots were then plotted against the compound concentrations in the correlation analysis, and Ki was determined as the intercept on the negative x-axis. All rate measurements were performed in triplicate and data analysis was performed using OriginPro 2021.

[5] = ABTS radical-scavenging assay
Description: ABTS radical-scavenging activity was measured by using the modified method. The test compound was dissolved in ethanol as 1.0 mg/mL, 0.5 mg/mL, 0.25 mg/mL, 0.125 mg/mL, 0.0625 mg/mL, and 0.03125 mg/mL. Similarly, the ethanol solution of Trolox with the same concentration gradient was prepared as a positive control. ABTS solution at a concentration of 7 mM and potassium persulfate solution at a concentration of 2.45 mM with distilled water were also prepared. The ABTS solution and the potassium persulfate solution were mixed in equal amounts, and then placed in the dark and protected from light for 12 h. The ABTS standard solution was diluted with ethanol until the absorbance value at 734 nm was in the range of 0.7 ± 0.05. Then, 3900 µL of ABTS cation solution was mixed with 100 µL of test compound at different concentrations. The samples were kept in the dark for 10 min at room temperature and absorption was measured at 734 nm on a spectrophotometer. The percentage of ABTS radical-scavenging activity was calculated as follows: (Ac−Ai)/Ac × 100%, where Ai and Ac represented the change in absorbance in the presence and absence of the test sample, respectively.

[6] = target: T2, AChE (EC 3.1.1.7, from electric eel); details: cited from earlier work
[7] = target: T1, BChE (EC 3.1.1.8, from horse serum); details: cited from earlier work

In the case of `COc1cc2c(Nc3ccccc3)c([N+](=O)[O-])cnc2cc1OCCCN1CCOCC1` [11a, 6-Methoxy-7-(3-Morpholinopropoxy)-3-Nitro-4-Phenylamino-Quinoline], the IC50 [1] is reported as 80.9 ± 2.31 µM, the “SI for AChE = IC50 BChE/IC50 AChE” value [2] is reported as 16.37 and the IC50 [2] is reported as 4.94 ± 0.15 µM. For the same compound, the logP at 24 h [3] was 3.82, the solubility at 24 h [4] was 620 µg/mL (≈ 1.41 mM) and the “type of AChE inhibition” value (AChE) was “mixed-type AChE inhibitors; also recorded: mixed type of inhibition”. For the same compound, the Ki (AChE) was 2.03 µM and the “reversibility of AChE inhibition” value (AChE) was “reversible inhibitors”.
With `COc1cc2c(Nc3ccccc3)c([N+](=O)[O-])cnc2cc1OCCN1CCOCC1` [11g, 6-Methoxy-7-(2-Morpholinoethoxy)-3-Nitro-4-Phenylamino-Quinoline] the IC50 [1] was 28.4 ± 1.85 µM, the IC50 [2] was 1.94 ± 0.13 µM and the “ABTS radical-scavenging IC50” value [5] was 17.50 ± 2.71 µg/mL. It also gave an IC50 [5] of 41.2 ± 6.38 µM, a logP at 24 h [3] of 3.55 and a solubility at 24 h [4] of 3030 µg/mL (≈ 7.14 mM). The “type of AChE inhibition” value (AChE) was “mixed-type AChE inhibitors; also recorded: mixed type of inhibition”, the Ki (AChE) was 0.64 µM and the “reversibility of AChE inhibition” value (AChE) was “reversible inhibitors”.
In the case of `COc1cc2c(Nc3ccccc3Cl)c([N+](=O)[O-])cnc2cc1OCCCN(C)Cc1ccccc1` [B], the “SI for AChE = IC50 BChE/IC50 AChE” value [6] is given as 3.08 ^e.
For `COc1ccc(Nc2c([N+](=O)[O-])cnc3cc(OCCCN4CCC(C)CC4)c(OC)cc23)cc1` [C], the IC50 [6] is given as 1.2 ± 0.18 µM, the “SI for AChE = IC50 BChE/IC50 AChE” value [6] is given as 15.43 ^f and the IC50 [7] is given as 18.5 ± 1.2 µM.
